Source: US5726186A, “Pentacyclic compounds, intermediates, processes, compositions, and methods” (Eli Lilly and Company, priority 1996, dated 1998)

What was measured:
[1] = test system: Serum Cholesterol; experiment: Serum cholesterol analysis in ovariectomized rats; assay type: in vivo, female Sprague Dawley rats (ovariectomized); conditions: Rattus norvegicus, 96 h, oral, daily for 4 days, OVX rats, read-out: Serum Cholesterol (% decrease vs. OVX)
Text: (§1) Seventy-five day old female Sprague Dawley rats (weight range of 200 to 225 g) were obtained from Charles River Laboratories (Portage, Mich.). The animals were either bilaterally ovariectomized (OVX) or exposed to a Sham surgical procedure at Charles River Laboratories, and then shipped after one week. Upon arrival, they were housed in metal hanging cages in groups of 3 or 4 per cage and had ad libitum access to food (calcium content approximately 0.5%) and water for one week. Room temperature was maintained at 22.2°±1.7° C. with a minimum relative humidity of 40%. The photoperiod in the room was 12 hours light and 12 hours dark.
(§2) Dosing Regimen Tissue Collection. After a one week acclimation period (therefore, two weeks post-OVX) daily dosing with test compound was initiated. 17a-ethynyl estradiol or the test compound were given orally, unless otherwise stated, as a suspension in 1% carboxymethylcellulose or dissolved in 20% cyclodextrin. Animals were dosed daily for 4 days. Following the dosing regimen, animals were weighed and anesthetized with a ketamine: Xylazine (2:1, V:V) mixture and a blood sample was collected by cardiac puncture. The animals were then sacrificed by asphyxiation with CO2, the uterus was removed through a midline incision, and a wet uterine weight was determined.
Cholesterol Analysis. Blood samples were allowed to clot at room temperature for 2 hours, and serum was obtained following centrifugation for 10 minutes at 3000 rpm. Serum cholesterol was determined using a Boehringer Mannheim Diagnostics high performance cholesterol assay. Briefly the cholesterol was oxidized to cholest-4-en-3-one and hydrogen peroxide. The hydrogen peroxide was then reacted with phenol and 4-aminophenazone in the presence of peroxidase to produce a p-quinone imine dye, which was read spectrophotemetrically at 500 nm. Cholesterol concentration was then calculated against a standard curve. The entire assay was automated using a Biomek Automated Workstation.
(§3) The data presented in the Tables 1 below reflects the response of 5 to 6 rats per treatment.

[2] = test system: MCF-7 breast adenocarcinoma cells; experiment: MCF-7 Proliferation Assay (tritiated thymidine); assay type: cell-based; conditions: Homo sapiens, MCF7; MCF-7 cells, 48 hours, tritiated thymidine pulse 4 hours
Procedure: MCF-7 breast adenocarcinoma cells (ATCC HTB 22) were maintained in MEM (minimal essential medium, phenol red-free, Sigma, St. Louis, Mo.) supplimented with 10% fetal bovine serum […] (V/V), L-glutamine (2 mM), sodium pyruvate (1 mM), HEPES {(N-[2-hydroxyethyl]piperazine-N'-[2-ethanesulfonic acid]10 mM)}, non-essential amino acids and bovine insulin (1 ug/mL) (maintenance medium). Ten days prior to assay, MCF-7 cells were switched to maintenance medium supplemented with 10% dextran coated charcoal stripped fetal bovine serum (DCC-FBS) assay medium) in place of 10% FBS to deplete internal stores of steroids. MCF-7 cells were removed from maintenance flasks using cell dissociation medium (Ca++/Mg++ free HBSS (phenol red-free) supplemented with 10 mM HEPES and 2 mM EDTA). Cells were washed twice with assay medium and adjusted to 80,000 cells/mL. Approximately […] (8,000 cells) were added to flat-bottom microculture wells (Costar 3596) and incubated at 37° C. in a 5% CO2 humidified incubator for 48 hours to allow for cell adherence and equilibration after transfer. Serial dilutions of drugs or DMSO as a diluent control were prepared in assay medium and […] to triplicate microcultures followed by […] assay medium for a final volume of […]. After an additional 48 hours at 37° C. in a 5% CO2 humidified incubator, microcultures were pulsed with tritiated thymidine (1 uCi/well) for 4 hours. Cultures were terminated by freezing at -70° C. for 24 hours followed by thawing and harvesting of microcultures using a Skatron Semiautomatic Cell Harvester. Samples were counted by liquid scintillation using a Wallac BetaPlace b counter. Results in Table 3 below show the IC50 for certain compounds of the present invention.

[3] = test system: Distal Femur Metaphysis; experiment: Osteoporosis test, distal femur metaphysis X-ray image analysis; assay type: in vivo, female Sprague Dawley rats (ovariectomized); conditions: oral, daily for 35 days, in 20% hydroxypropyl b-cyclodextrin
Text: Seventy-five day old female Sprague Dawley rats (weight range of 200 to 225 g) were obtained from Charles River Laboratories (Portage, Mich.). The animals were either bilaterally ovariectomized (OVX) or exposed to a Sham surgical procedure at Charles River Laboratories, and then shipped after one week. Upon arrival, they were housed in metal hanging cages in groups of 3 or 4 per cage and had ad libitum access to food (calcium content approximately 0.5%) and water for one week. Room temperature was maintained at 22.2°±1.7° C. with a minimum relative humidity of 40%. The photoperiod in the room was 12 hours light and 12 hours dark. Following the General Preparation Procedure, infra, the rats were treated daily for 35 days (6 rats per treatment group) and sacrificed by carbon dioxide asphyxiation on the 36th day. The 35 day time period was sufficient to allow maximal reduction in bone density, measured as described herein. At the time of sacrifice, the uteri were removed, dissected free of extraneous tissue, and the fluid contents were expelled before determination of wet weight in order to confirm estrogen deficiency associated with complete ovariectomy. […] The uteri were then placed in 10% neutral buffered formalin to allow for subsequent histological analysis. The right femurs were excised and digitilized x-rays generated and analyzed by an image analysis program (NIH image) at the distal metaphysis. The proximal aspect of the tibiae from these animals were also scanned by quantitative computed tomography. In accordance with the above procedures, compounds of the present invention and ethynyl estradiol (EE2) in 20% hydroxypropyl b-cyclodextrin were orally administered to test animals. Distal femur metaphysis data presented in Tables 2 and 3 below are the results of formula I compound treatments compared to intact and ovariectomized test animals. Results are reported as percent protection relative to ovariectomy.

[4] = test system: uterus; experiment: Wet uterine weight in ovariectomized rats (post-menopausal model); assay type: in vivo, female Sprague Dawley rats (ovariectomized); conditions: Rattus norvegicus, 96 h, oral, daily for 4 days, OVX rats, read-out: Uterine Weight (% increase vs. OVX)
Procedure: In the examples illustrating the methods, a post-menopausal model was used in which effects of different treatments upon circulating lipids were determined.
as §1, §2, §3

[5] = test system: Uterine Eosinophil Peroxidase (EPO); experiment: Uterine Eosinophil Peroxidase (EPO) Assay; assay type: in vivo, female Sprague Dawley rats (ovariectomized); set-up: Uterine EPO (V. max): unit not given here; conditions: oral, daily for 4 days, OVX rats, 450 nm
Text: as §1, §2
Uterine Eosinophil Peroxidase (EPO) Assay. Uteri were kept at 4° C. until time of enzymatic analysis. The uteri were then homogenized in 50 volumes of 50 mM Tris buffer (pH-8.0) containing 0.005% Triton X-100. Upon addition of 0.01% hydrogen peroxide and 10 mM O-phenylenediamine (final concentrations) in Tris buffer, increase in absorbance was monitored for one minute at 450 nm. The presence of eosonophils in the uterus is an indication of estrogenic activity of a compound. The maximal velocity of a 15 second interval was determined over the initial, linear portion of the reaction curve.
As is expressed in the below data, estrogenicity also was assessed by evaluating the adverse response of eosinophil infiltration into the uterus.
as §3

Row | SMILES | inhibition in vivo at 0.1 mg/kg [1] [%] | inhibition in vivo at 1 mg/kg [1] [%] | inhibition in vivo at 10 mg/kg [1] [%] | IC50 [2] [nM] | Distal Femur Metaphysis (X-ray Image Analysis-Gray Score), percent protection relative to ovariectomy ([3]; 0.01 mg/kg) [%] | Distal Femur Metaphysis (X-ray Image Analysis-Gray Score), percent protection relative to ovariectomy ([3]; 0.1 mg/kg) [%] | Distal Femur Metaphysis (X-ray Image Analysis-Gray Score), percent protection relative to ovariectomy ([3]; 1.0 mg/kg) [%] | Distal Femur Metaphysis (X-ray Image Analysis-Gray Score), percent protection relative to ovariectomy ([3]; 10.0 mg/kg) [%] | change in vivo at 0.1 mg/kg [4] [%] | change in vivo at 1 mg/kg [4] [%] | change in vivo at 10 mg/kg [4] [%] | Uterine EPO (V. max) ([5]; 0.1 mg/kg) | Uterine EPO (V. max) ([5]; 1.0 mg/kg) | Uterine EPO (V. max) ([5]; 10.0 mg/kg) | inhibition in vivo at 0.01 mg/kg ([1]; 0.01 mg/kg) [%] | change in vivo at 0.01 mg/kg ([4]; 0.01 mg/kg) [%] | Uterine EPO (V. max) ([5]; 0.01 mg/kg)
1 | Oc1ccc2c(c1)OC(c1ccc(OCCN3CCCCC3)cc1)c1c-2sc2cc(O)ccc12 (stereo not drawn) [Example 1, 3,9-Dihydroxy-6-[4-[2-(1-piperidinyl)ethoxy]phenyl]-6-H-[1]benzothieno[3,2-c][1]benzopyran] | 72.8 | 51 | 54.6 | 0.2 | 14.2 | 49.8 | 51.7 | 48.2 | 25.3 | 9.2 | 5.9 | 7.8 | 3.0 | 2.1 | – | – | –
2 | CCCCS(=O)(=O)Oc1ccc2c(c1)OC(c1ccc(OCCN3CCCCC3)cc1)c1c-2sc2cc(OS(=O)(=O)CCCC)ccc12 (stereo not drawn) [Example 5, 3,9-Bis(1-butylsulfonyloxy)-6-[4-[2-(1-piperidinyl)ethoxy]phenyl]-6-H-[1]benzothieno[3,2-c][1]benzopyran] | -9 | 61.3 | – | 1000 | – | – | – | – | -5.1 | 18.6 | – | 4.5 | 4.8 | – | – | – | –
3 | O=S(=O)(Oc1ccc2c(c1)OC(c1ccc(OCCN3CCCCC3)cc1)c1c-2sc2cc(OS(=O)(=O)C(F)(F)F)ccc12)C(F)(F)F (stereo not drawn) [Example 6, 3,9-Bis(trifluoromethanesulfonyloxy)-6-[4-[2-(1-piperidinyl)ethoxy]phenyl]-6-H-[1]benzothieno[3,2-c][1]benzopyran] | -2.5 | 9.9 | -11.4 | 500 | – | – | – | – | 23 | 6.4 | 50 | 4.2 | 1.8 | 3.6 | – | – | –
4 | Oc1ccc2c(c1)OC(c1ccc(OCCN3CCCCC3)cc1)c1c-2oc2cc(O)ccc12 (stereo not drawn) [Example 11, 3,9-Dihydroxy-6-[4-[2-(1-piperidinyl)ethoxy]phenyl]-6-H-benzofuro[3,2-c][1]benzopyran] | 17.4 | 30.9 | 36.3 | 0.7 | – | – | – | – | -8.8 | 3 | -12.6 | 2.7 | 4.2 | 4.2 | – | – | –
5 | Oc1ccc2c(c1)CN(c1ccc(OCCN3CCCCC3)cc1)c1c-2ccc2cc(O)ccc12 [Example 14, 2,8-Dihydroxy-5-[4-[2-(1-piperidinyl)ethoxy]phenyl]-6H-benzo[c]phenanthridine] | 59.5 | 60.7 | – | 1 | – | – | – | – | 60 | 49.1 | – | 5.4 | 36.0 | – | 24.8 | -0.6 | 2.7
